{"source": "patent US11602567B2", "about": "“Methods for modulating RNA splicing” (PTC Therapeutics, Inc., priority 2015, dated 2023)", "assay_in_all_cases": "Endpoint RT-PCR analysis of alternatively spliced mRNAs in cultured cells", "format_in_all_cases": "cell-based, human", "key": {"ERGIC3 exon 8": {"system": "ERGIC3 exon 8", "details": "ERGIC3 exon 8, sequence GAGAgtaagt; GM03813 cells, 24 hours; without compound 0", "experimental": "(§1) Endpoint RT-PCR Analysis of Alternatively Spliced mRNAs in Cultured Cells GM03813 cells derived from a patient with SMA type I (Coriell Institute) were plated at 5,000 cells/well in 200 μl DMEM with 10% FBS in 96-well plates, and incubated for 6 hours in a cell culture incubator (37° C., 5% CO2, 100% relative humidity). Cells were then treated with Compound 702 at different concentrations (in 0.5% DMSO) in duplicate for 24 hours. After removal of the supernatant, cells were lysed in Cells-To-Ct lysis buffer (Life Technologies, Inc.). Reverse transcription was performed using 5 μl of cell lysate and the iScript RT enzyme kit (Bio-Rad Laboratories, Inc). PCR was performed using 5 μl of cDNA and Platinum Taq HiFi DNA Polymerase (Life Technologies, Inc.) under the following PCR conditions: Step 1: 94° C. (2 min), Step 2: 94° C. (30 sec), Step 3: 55° C. (30 sec), Step 4: 68° C. (1 min), then repeat Steps 2 to 4 for 33 cycles, then hold at 4° C. PCR products were separated on 2% agarose E-gels, stained with ethidium bromide and visualized using a gel imager (UVP). [table]"}, "PARP1 exon 22": {"system": "PARP1 exon 22", "details": "PARP1 exon 22, sequence ACGAgtatcc; GM03813 cells, 24 hours; without compound 100", "experimental": "as §1"}, "COL1A1 exon 11": {"system": "COL1A1 exon 11", "details": "COL1A1 exon 11, sequence CAGAgtgagt; GM03813 cells, 24 hours; without compound 100", "experimental": "as §1"}, "SMN2 exon 7": {"system": "SMN2 exon 7", "details": "SMN2 exon 7, sequence AGGAgtaagt; GM03813 cells, 24 hours; % inclusion of exon without compound 40", "experimental": "as §1"}, "COL1A2 exon 21": {"system": "COL1A2 exon 21", "details": "COL1A2 exon 21, sequence GAGAgtaggt; GM03813 cells, 24 hours; without compound 100", "experimental": "as §1"}, "COL1A1 exon 5": {"system": "COL1A1 exon 5", "details": "COL1A1 exon 5, sequence AGGAgtaagt; GM03813 cells, 24 hours; without compound 0", "experimental": "as §1"}, "SMN2 exon 5": {"system": "SMN2 exon 5", "details": "SMN2 exon 5, sequence ACCAgtaagt; GM03813 cells, 24 hours; without compound 50", "experimental": "as §1"}, "VPS29 exon 2": {"system": "VPS29 exon 2", "details": "VPS29 exon 2, sequence CAGAgtaagt; GM03813 cells, 24 hours; without compound 40", "experimental": "as §1"}, "MADD exon 21": {"system": "MADD exon 21", "details": "MADD exon 21, sequence CAGAgtaagg; GM03813 cells, 24 hours; without compound 0", "experimental": "as §1"}, "PRKDC exon 11": {"system": "PRKDC exon 11", "details": "PRKDC exon 11, sequence AGGAgtatgt; GM03813 cells, 24 hours; without compound 100", "experimental": "as §1"}, "FN1 exon 35": {"system": "FN1 exon 35", "details": "FN1 exon 35, sequence GAGAgtaagt; GM03813 cells, 24 hours; without compound 100", "experimental": "as §1"}, "COL1A2 exon 22": {"system": "COL1A2 exon 22", "details": "COL1A2 exon 22, sequence CAGAgtaagt; GM03813 cells, 24 hours; without compound 100", "experimental": "as §1"}, "COL5A2 exon 49": {"system": "COL5A2 exon 49", "details": "COL5A2 exon 49, sequence AAGAgtaagt; GM03813 cells, 24 hours; without compound 90", "experimental": "as §1"}, "RCC 1 exon 4": {"system": "RCC 1 exon 4", "details": "RCC 1 exon 4, sequence AGAGgtaaga; GM03813 cells, 24 hours; without compound 90", "experimental": "as §1"}, "FADS2 exon 6": {"system": "FADS2 exon 6", "details": "FADS2 exon 6, sequence CTGAgtaagt; GM03813 cells, 24 hours; without compound 100", "experimental": "as §1"}, "GGCT exon 2": {"system": "GGCT exon 2", "details": "GGCT exon 2, sequence ATGAgtaggt; GM03813 cells, 24 hours; without compound 40", "experimental": "as §1"}, "[1]": {"system": "FOXM1 exon 7A (114 nucleotides)", "details": "sequence ATCAgtaagt, GM03813 cells, 24 hours, without compound 0", "experimental": "as §1"}, "COL1A1 exon 46": {"system": "COL1A1 exon 46", "details": "COL1A1 exon 46, sequence CCGAgtaagt; GM03813 cells, 24 hours; without compound 100", "experimental": "as §1"}, "COL5A2 exon 32": {"system": "COL5A2 exon 32", "details": "COL5A2 exon 32, sequence TAGAgtaagt; GM03813 cells, 24 hours; without compound 100", "experimental": "as §1"}, "APLP2 exon 7": {"system": "APLP2 exon 7", "details": "APLP2 exon 7, sequence ATGAgtaagt; GM03813 cells, 24 hours; without compound 10", "experimental": "as §1"}, "PRKDC exon 51": {"system": "PRKDC exon 51", "details": "PRKDC exon 51, sequence GCGAgtacgt; GM03813 cells, 24 hours; without compound 100", "experimental": "as §1"}, "COL3A1 exon 10": {"system": "COL3A1 exon 10", "details": "COL3A1 exon 10, sequence CAGAgtaagt; GM03813 cells, 24 hours; without compound 100", "experimental": "as §1"}, "LAMA2 exon 5": {"system": "LAMA2 exon 5", "details": "LAMA2 exon 5, sequence AAGAgtaagt; GM03813 cells, 24 hours; without compound 100", "experimental": "as §1"}, "COL5A2 exon 13": {"system": "COL5A2 exon 13", "details": "COL5A2 exon 13, sequence CCGAgtaagt; GM03813 cells, 24 hours; without compound 100", "experimental": "as §1"}, "STRN3 exon 8": {"system": "STRN3 exon 8", "details": "STRN3 exon 8, sequence AAGAgtaagt; GM03813 cells, 24 hours; without compound 10", "experimental": "as §1"}, "LARP7 exon 2": {"system": "LARP7 exon 2", "details": "LARP7 exon 2, sequence AAGAgtaaga; GM03813 cells, 24 hours; without compound 10", "experimental": "as §1"}, "COL5A2 exon 34": {"system": "COL5A2 exon 34", "details": "COL5A2 exon 34, sequence CAGAgtaagt; GM03813 cells, 24 hours; without compound 100", "experimental": "as §1"}, "COL5A2 exon 35": {"system": "COL5A2 exon 35", "details": "COL5A2 exon 35, sequence AAGAgtaagt; GM03813 cells, 24 hours; without compound 100", "experimental": "as §1"}, "COL1A1 exon 30": {"system": "COL1A1 exon 30", "details": "COL1A1 exon 30, sequence AAGAgtaagt; GM03813 cells, 24 hours; without compound 60", "experimental": "as §1"}, "[2]": {"system": "FOXM1 exon 7A […]C (34 nucleotides)", "details": "sequence ATGAgtaagt, GM03813 cells, 24 hours, without compound 0", "experimental": "as §1"}, "LARP7 exon 1": {"system": "LARP7 exon 1", "details": "LARP7 exon 1, sequence CGGAgtaagt; GM03813 cells, 24 hours; without compound 0", "experimental": "as §1"}, "GALC exon 5": {"system": "GALC exon 5", "details": "GALC exon 5, sequence TGGAgttagt; GM03813 cells, 24 hours; without compound 90", "experimental": "as §1"}, "COL3A1 exon 46": {"system": "COL3A1 exon 46", "details": "COL3A1 exon 46, sequence CAGAgtaagt; GM03813 cells, 24 hours; without compound 100", "experimental": "as §1"}, "COL1A2 exon 30": {"system": "COL1A2 exon 30", "details": "COL1A2 exon 30, sequence AAGAgtaagt; GM03813 cells, 24 hours; without compound 100", "experimental": "as §1"}, "DIAPH3 exon 11": {"system": "DIAPH3 exon 11", "details": "DIAPH3 exon 11, sequence TTGAatatcc; GM03813 cells, 24 hours; without compound 100", "experimental": "as §1"}, "COL1A1 exon 32": {"system": "COL1A1 exon 32", "details": "COL1A1 exon 32, sequence CAGAgtaagt; GM03813 cells, 24 hours; without compound 90", "experimental": "as §1"}, "ARMCX6 exon 3": {"system": "ARMCX6 exon 3", "details": "ARMCX6 exon 3, sequence TAGAgtatga; GM03813 cells, 24 hours; without compound 0", "experimental": "as §1"}}}
{"compound": "CCN1CCC(c2cc(C)c3nc(-c4cc5c(C)nc(C)cn5n4)cc(=O)n3c2)CC1", "note": "[Compound 702]", "values": [{"measurement": "% Inclusion of Exon with Compound", "setting": "ERGIC3 exon 8", "value": 10, "unit": "%"}, {"measurement": "% Inclusion of Exon with Compound", "setting": "PARP1 exon 22", "value": "no change"}, {"measurement": "% Inclusion of Exon with Compound", "setting": "COL1A1 exon 11", "value": "no change"}, {"measurement": "% Inclusion of Exon with Compound", "setting": "SMN2 exon 7", "value": 100, "unit": "%"}, {"measurement": "% Inclusion of Exon with Compound", "setting": "COL1A2 exon 21", "value": "no change"}, {"measurement": "% Inclusion of Exon with Compound", "setting": "COL1A1 exon 5", "value": "no change"}, {"measurement": "% Inclusion of Exon with Compound", "setting": "SMN2 exon 5", "value": "no change"}, {"measurement": "% Inclusion of Exon with Compound", "setting": "VPS29 exon 2", "value": 100, "unit": "%"}, {"measurement": "% Inclusion of Exon with Compound", "setting": "MADD exon 21", "value": 5, "unit": "%"}, {"measurement": "% Inclusion of Exon with Compound", "setting": "PRKDC exon 11", "value": "no change"}, {"measurement": "% Inclusion of Exon with Compound", "setting": "FN1 exon 35", "value": "no change"}, {"measurement": "% Inclusion of Exon with Compound", "setting": "COL1A2 exon 22", "value": "no change"}, {"measurement": "% Inclusion of Exon with Compound", "setting": "COL5A2 exon 49", "value": "no change"}, {"measurement": "% Inclusion of Exon with Compound", "setting": "RCC 1 exon 4", "value": "no change"}, {"measurement": "% Inclusion of Exon with Compound", "setting": "FADS2 exon 6", "value": "no change"}, {"measurement": "% Inclusion of Exon with Compound", "setting": "GGCT exon 2", "value": 95, "unit": "%"}, {"measurement": "% Inclusion of Exon with Compound", "setting": "[1]", "value": 10, "unit": "%"}, {"measurement": "% Inclusion of Exon with Compound", "setting": "COL1A1 exon 46", "value": "no change"}, {"measurement": "% Inclusion of Exon with Compound", "setting": "COL5A2 exon 32", "value": "no change"}, {"measurement": "% Inclusion of Exon with Compound", "setting": "APLP2 exon 7", "value": 30, "unit": "%"}, {"measurement": "% Inclusion of Exon with Compound", "setting": "PRKDC exon 51", "value": "no change"}, {"measurement": "% Inclusion of Exon with Compound", "setting": "COL3A1 exon 10", "value": "no change"}, {"measurement": "% Inclusion of Exon with Compound", "setting": "LAMA2 exon 5", "value": "no change"}, {"measurement": "% Inclusion of Exon with Compound", "setting": "COL5A2 exon 13", "value": "no change"}, {"measurement": "% Inclusion of Exon with Compound", "setting": "STRN3 exon 8", "value": 100, "unit": "%"}, {"measurement": "% Inclusion of Exon with Compound", "setting": "LARP7 exon 2", "value": 40, "unit": "%"}, {"measurement": "% Inclusion of Exon with Compound", "setting": "COL5A2 exon 34", "value": "no change"}, {"measurement": "% Inclusion of Exon with Compound", "setting": "COL5A2 exon 35", "value": "no change"}, {"measurement": "% Inclusion of Exon with Compound", "setting": "COL1A1 exon 30", "value": 90, "unit": "%"}, {"measurement": "% Inclusion of Exon with Compound", "setting": "[2]", "value": 90, "unit": "%"}, {"measurement": "% Inclusion of Exon with Compound", "setting": "LARP7 exon 1", "value": 10, "unit": "%"}, {"measurement": "% Inclusion of Exon with Compound", "setting": "GALC exon 5", "value": "no change"}, {"measurement": "% Inclusion of Exon with Compound", "setting": "COL3A1 exon 46", "value": "no change"}, {"measurement": "% Inclusion of Exon with Compound", "setting": "COL1A2 exon 30", "value": "no change"}, {"measurement": "% Inclusion of Exon with Compound", "setting": "DIAPH3 exon 11", "value": "no change"}, {"measurement": "% Inclusion of Exon with Compound", "setting": "COL1A1 exon 32", "value": "no change"}, {"measurement": "% Inclusion of Exon with Compound", "setting": "ARMCX6 exon 3", "value": "no change"}]}
